From publication PMC5398914 (Nature, 2017)

Target: T1, OxsB + OxsA (OxsA/OxsB) (Priestia megaterium, UniProt O24770)
T1 sequence (O24770 1-744): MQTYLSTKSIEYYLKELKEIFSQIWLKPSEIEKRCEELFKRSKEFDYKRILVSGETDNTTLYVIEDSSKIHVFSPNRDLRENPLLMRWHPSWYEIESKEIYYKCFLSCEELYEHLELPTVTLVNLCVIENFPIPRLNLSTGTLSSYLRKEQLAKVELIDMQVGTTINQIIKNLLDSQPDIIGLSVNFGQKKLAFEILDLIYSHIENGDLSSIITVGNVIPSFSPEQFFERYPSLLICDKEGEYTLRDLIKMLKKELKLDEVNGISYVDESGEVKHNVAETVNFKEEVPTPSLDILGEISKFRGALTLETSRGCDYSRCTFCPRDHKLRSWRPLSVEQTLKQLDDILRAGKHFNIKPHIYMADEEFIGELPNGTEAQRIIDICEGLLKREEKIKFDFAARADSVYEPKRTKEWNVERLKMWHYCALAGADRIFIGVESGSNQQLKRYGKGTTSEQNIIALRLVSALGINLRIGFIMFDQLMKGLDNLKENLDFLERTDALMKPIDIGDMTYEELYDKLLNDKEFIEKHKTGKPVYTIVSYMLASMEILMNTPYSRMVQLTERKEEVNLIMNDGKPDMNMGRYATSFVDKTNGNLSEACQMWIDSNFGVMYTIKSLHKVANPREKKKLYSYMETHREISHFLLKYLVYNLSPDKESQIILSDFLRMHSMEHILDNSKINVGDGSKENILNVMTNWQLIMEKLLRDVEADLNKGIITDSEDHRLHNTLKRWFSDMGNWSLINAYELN
Test: HPLC product detection, MS and NMR
Format: biochemical
Settings: AdoMet, HO-Cbl, MgCl2, DTT, NADPH / methyl viologen

Nc1ncnc2c1ncn2[C@H]1C[C@H](O)[C@@H](COP(=O)(O)O)O1 [dAMP]
HPLC product detection, MS and NMR: identify dAMP, dADP and dATP as OXT-A precursors
